Experimental data: the supplement of paper PMC10307832

Assays:
Test in all cases: relative viability (nuclei count vs DMSO), 5 days (fraction); higher = more cells survive
[1] = compound: C(C(=O)C(=O)O)Br [Bromopyruvate] + C[C@]1(O)C[C@@H](c2nc(-c3ccc4ccc(-c5ccccc5)nc4c3)c3c(N)nccn32)C1 [Linsitinib] (partner 1 µM)
How it was run: (§1)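 Five library-drug doses in √10 steps were combined with a fixed anchor-drug dose, or a single drug was given alone, by pin tool to lung cancer cell lines in 1536-well plates the day after seeding. Nuclei were stained and counted after 5 days. Relative viability is the nuclei count in treated wells over that in vehicle wells, taken as the median of duplicate plates.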

[2] = compound: CC(O)(CS(=O)(=O)c1ccc(F)cc1)C(=O)Nc1ccc(C#N)c(C(F)(F)F)c1 [Bicalutamide] + C[C@@H](Oc1cc(-c2cnn(C3CCNCC3)c2)cnc1N)c1c(Cl)ccc(F)c1Cl [Crizotinib] (partner 1 µM)
How it was run: as §1

[3] = compound: CC(O)(CS(=O)(=O)c1ccc(F)cc1)C(=O)Nc1ccc(C#N)c(C(F)(F)F)c1 [Bicalutamide] + Nc1nc2[nH]cc(CCc3ccc(C(=O)N[C@@H](CCC(=O)O)C(=O)O)cc3)c2c(=O)[nH]1 [Pemetrexed] (partner 0.2 µM)
How it was run: as §1

Bicalutamide + Olaparib = compound: CC(O)(CS(=O)(=O)c1ccc(F)cc1)C(=O)Nc1ccc(C#N)c(C(F)(F)F)c1 [Bicalutamide] + O=C(c1cc(Cc2n[nH]c(=O)c3ccccc23)ccc1F)N1CCN(C(=O)C2CC2)CC1 [Olaparib] (partner 8 µM)
How it was run: as §1

Row | Cell Line | relative viability ([1]; first compound 1 µM) | relative viability ([1]; first compound 3.162 µM) | relative viability ([1]; first compound 10 µM) | relative viability ([1]; first compound 31.62 µM) | relative viability ([1]; first compound 100 µM) | relative viability ([2]; first compound 0.08 µM) | relative viability ([2]; first compound 0.253 µM) | relative viability ([2]; first compound 0.8 µM) | relative viability ([2]; first compound 2.53 µM) | relative viability ([3]; first compound 0.08 µM) | relative viability ([3]; first compound 0.253 µM) | relative viability ([3]; first compound 0.8 µM) | relative viability ([3]; first compound 2.53 µM) | relative viability (Bicalutamide + Olaparib; first compound 0.08 µM) | relative viability (Bicalutamide + Olaparib; first compound 0.253 µM) | relative viability (Bicalutamide + Olaparib; first compound 0.8 µM) | relative viability (Bicalutamide + Olaparib; first compound 2.53 µM)
1 | NCI-H1975 | 0.877 | 1.12 | 1.16 | 0.999 | 0.853 | 0.97 | 0.915 | 1.08 | 0.781 | 0.316 | 0.311 | 0.299 | 0.306 | 0.81 | 0.772 | 1 | 0.59
2 | CAL-12T | 0.789 | 0.732 | 0.899 | 0.828 | 0.845 | 0.785 | 0.556 | 0.67 | 0.396 | 1.34 | 1.06 | 1.28 | 1.14 | 0.753 | 0.711 | 0.769 | 0.63
3 | HCC-44 | 0.612 | 0.662 | 0.729 | 0.753 | 0.713 | 0.838 | 0.817 | 0.832 | 0.968 | 0.675 | 0.707 | 0.637 | 0.688 | 1.01 | 1.02 | 1.02 | 1.01
4 | EKVX | 0.905 | 1.02 | 1.11 | 0.965 | 1.13 | 0.924 | 0.81 | 1.14 | 0.801 | 0.378 | 0.335 | 0.392 | 0.391 | 0.917 | 0.861 | 1 | 0.79
5 | NCI-H1651 | 0.876 | 0.98 | 0.902 | 0.885 | 1.07 | 0.868 | 0.861 | 0.912 | 0.892 | 0.597 | 0.525 | 0.672 | 0.618 | 0.203 | 0.167 | 0.192 | 0.181
6 | NCI-H1944 | 1.27 | 1.31 | 1.19 | 1.12 | 1.22 | 1.07 | 0.982 | 1.28 | 1.12 | 0.562 | 0.599 | 0.681 | 0.611 | 0.424 | 0.388 | 0.46 | 0.375
7 | NCI-H1703 | 0.602 | 1.08 | 0.709 | 0.678 | 0.655 | 0.621 | 0.511 | 0.624 | 0.397 | – | – | – | – | 0.431 | 0.387 | 0.391 | 0.231
8 | Calu-6 | 0.889 | 1.04 | 1.09 | 0.926 | 0.958 | 0.865 | 0.795 | 0.914 | 0.727 | – | – | – | – | 0.667 | 0.52 | 0.586 | 0.604
9 | EBC-1 | 0.78 | 0.963 | 0.994 | 0.905 | 0.93 | 0.166 | 0.185 | 0.186 | 0.185 | – | – | – | – | 0.707 | 0.638 | 0.746 | 0.654
10 | A-427 | 1.05 | 1.05 | 1.03 | 1.15 | 1.14 | 0.934 | 0.967 | 0.915 | 0.804 | 0.986 | 0.968 | 1.11 | 0.913 | 0.704 | 0.692 | 0.842 | 0.707
11 | NCI-H2405 | 0.938 | 0.948 | 1.11 | 0.727 | 0.907 | 0.913 | 0.817 | 0.962 | 0.837 | 1.07 | 1.01 | 1.35 | 1.04 | 0.947 | 0.83 | 0.919 | 0.842
12 | NCI-H1355 | 0.778 | 0.772 | 0.914 | 0.873 | 0.866 | 1.12 | 0.993 | 1.14 | 1.04 | 1.04 | 0.992 | 1.1 | 0.999 | 0.711 | 0.696 | 0.848 | 0.668
13 | NCI-H358 | 0.748 | 0.77 | 0.81 | 0.62 | 0.903 | 0.831 | 0.616 | 0.44 | 0.399 | 0.174 | 0.17 | 0.218 | 0.176 | 0.664 | 0.519 | 0.706 | 0.595
14 | RERF-LC-KJ | 0.885 | 0.935 | 0.952 | 0.906 | 0.933 | 0.874 | 0.849 | 0.872 | 0.855 | 0.471 | 0.457 | 0.517 | 0.492 | 0.979 | 1.04 | 0.962 | 0.768
15 | NCI-H23 | 0.484 | 0.584 | 0.661 | 0.54 | 0.51 | 0.495 | 0.467 | 0.493 | 0.399 | 0.52 | 0.528 | 0.854 | 0.578 | 0.342 | 0.3 | 0.323 | 0.341
16 | HOP-62 | 1.04 | 1.02 | – | 0.368 | 0.24 | 0.807 | 0.936 | 1.33 | 1 | 0.371 | 0.289 | 0.277 | 0.327 | 0.736 | 0.38 | 0.388 | 0.349
17 | HARA | 0.978 | 1.01 | 1.01 | 0.932 | 1.02 | 0.946 | 1.07 | 1.19 | 1.09 | 0.233 | – | 0.299 | 0.251 | 0.871 | – | 1.22 | 0.878
18 | PC-14 | 1.03 | 1.01 | 0.938 | 0.944 | 1.04 | 0.958 | 0.972 | 0.899 | 0.904 | 0.121 | 0.121 | 0.119 | 0.117 | 0.346 | 0.3 | 0.274 | 0.271
19 | NCI-H1755 | 1.01 | 1.03 | 0.984 | 0.984 | 0.985 | 0.901 | 0.803 | 0.849 | 0.791 | 0.386 | 0.379 | 0.434 | 0.477 | 0.87 | 0.817 | 0.901 | 0.857
